The text below walks through data of PubChem BioAssay (NCI).

Holding throughout (assay): inhibition of tumour cell growth, NCI panel, 48 h
In assay [1] the test system is SF-295 CNS.
In assay [2] the test system is HOP-92 NSCLC.
The subject of assay [3] is UACC-257 melanoma.
Assay [4] deals with OVCAR-5 ovarian.
Assay [5] has as its system IGROV1 ovarian.
Assay [6] has as its system SW-620 colon.
In assay [7] the test system is LOX IMVI melanoma.
Assay [8] relates to MOLT-4 leukemia.
In assay [9] the test system is SK-MEL-5 melanoma.
For assay [10], the system named is CAKI-1 renal.

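Following 48 hours of exposure in 96-well plates, responses at five concentrations were used to interpolate endpoints linearly. At the GI50, growth is halved. Definition used: TGI = concentration required for complete inhibition of growth.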

Consider `COc1ccc2c(c1)CCC1C2CC[C@@]2(C)C1CC1=CC(COC(C)=O)C3C(=O)c4ccccc4C(=O)C3C12` (stereo partly drawn), for which the GI50 is > 100 µM in [1]; 1.43 µM in assay [2]; > 100 µM in [3]; > 100 µM in [4]; > 100 µM in assay [5]; > 100 µM in [6]. Also, the GI50 in assay [7], in assay [8], in [9] and in [10] was > 100 µM throughout. Further, the TGI is > 100 µM in [1]; 49.7 µM in assay [2]; > 100 µM in [3]; > 100 µM in [4]; > 100 µM in [5]; > 100 µM in [6]. The TGI in assay [7], in assay [8], in [9] and in assay [10] was > 100 µM each time.
Turning to `Cc1ccc(Cl)cc1Nc1nc(C(F)(F)F)ccc1C(=O)N1CCN(c2ccc(F)cc2)CC1`, the GI50 is 15.6 µM in assay [1]; 12.5 µM in assay [2]; 19.7 µM in [3]; 12.1 µM in assay [4]; 0.21 µM in assay [5]; 12.2 µM in assay [6]. In addition, the GI50 in [7] is 11.9 µM; in assay [8] it was 9.91 µM; in [9], 12 µM; in [10], 1.53 µM. Further, the TGI in assay [1] was found to be 32.5 µM; in [2], 30.4 µM; in assay [3] it was 46.5 µM; in [4] it was 30.1 µM; in assay [5] it was 27.2 µM; in assay [6] it was 24.6 µM. Also, the TGI in assay [7] is 24.6 µM; in assay [8], 46.6 µM; in assay [9], 24.3 µM; in assay [10], 14.2 µM.
With `CC(=O)Nc1ccc(C(=O)NN2C(=O)C(Cl)C2c2ccccc2)cc1` (stereo not drawn), the TGI in assay [1], in assay [2], in assay [3], in assay [4], in assay [5] and in [6] was > 100 µM throughout. Further, the TGI in [7], in assay [8], in assay [9] and in [10] was > 100 µM in each case.
`O=c1c2ccccc2[se]n1-c1cccnc1`: the TGI in assay [1] was > 100 µM; in assay [2] it was 36.1 µM; in assay [3], 57.7 µM; in [4], > 100 µM; in [5] it was 46.7 µM; in assay [6], 83.3 µM. For the same compound, the TGI in assay [7] was 56.8 µM; in assay [8], > 100 µM; in assay [9], 26.7 µM; in assay [10] it was > 100 µM.
Turning to `COC(=O)/C=C/c1cc(O)c2oc(-c3ccc(O)c(O)c3)c(C(=O)OC)c2c1`, the GI50 in [1] was 3.13 µM; in assay [2], 1.57 µM; in assay [3] it was 2.83 µM; in assay [4] it was 3.56 µM; in assay [5], 0.543 µM; in assay [6], 0.124 µM. In addition, the GI50 was 0.367 µM in assay [7], 0.462 µM in assay [8], 0.221 µM in [9] and 1.42 µM in assay [10]. In addition, the TGI in [1] came to 11.7 µM; in assay [2], 11.3 µM; in [3] it was 16.5 µM; in [4], 16.5 µM; in assay [5], 11.5 µM; in [6], 14 µM. The TGI in assay [7] worked out at 10.3 µM; in assay [8], 7.11 µM; in [9], 1.61 µM; in assay [10] it was 15 µM.
As for `COc1ncnc(C2CC2)c1-c1ncc2cnn(Cc3ccc(-c4nc(C(F)(F)F)cn4C(C)C)cc3)c2n1`, the GI50 in assay [1] was 18.4 µM; in assay [2], 6.41 µM; in assay [3], 18.4 µM; in assay [4], 26.2 µM; in [5] it was 21.1 µM; in assay [6], 28 µM. Further, the GI50 is 14.8 µM in assay [7], 17.5 µM in assay [8], 12.6 µM in [9] and 14.2 µM in [10]. Also, the TGI in [1] was 65.1 µM; in assay [2] it was 73.5 µM; in assay [3], 58.8 µM; in assay [4], > 100 µM; in assay [5], > 100 µM; in assay [6], > 100 µM. Moreover, the TGI in [7] was 31.7 µM; in assay [8], > 100 µM; in assay [9], 25.2 µM; in assay [10], > 100 µM.
With `Cc1ccc(C(SCC(N)C(=O)O)(c2ccccc2)c2ccc(C)cc2)cc1` (stereo not drawn), the GI50 in assay [1] was 0.167 µM; in assay [2], 1.19 µM; in assay [3], 2.13 µM; in assay [4], 1.11 µM; in assay [5] it was 0.526 µM; in assay [6], 0.153 µM. The GI50 in assay [7] is 0.602 µM; in assay [8], 2.7 µM; in assay [9] it was 0.0465 µM; in assay [10], 0.402 µM. Also, the TGI is 2.15 µM in assay [1]; 22.4 µM in [2]; > 56.8 µM in [3]; 24.4 µM in assay [4]; 26.1 µM in [5]; 14.8 µM in [6]. The TGI in [7] was 21.5 µM; in [8] it was > 48.2 µM; in assay [9] it was 13.8 µM; in assay [10], 20.1 µM.
Consider `O=[N+]([O-])c1nccn1CC(O)c1ccc(F)cc1` (stereo not drawn), for which the TGI in [1], in assay [2], in assay [3], in assay [4], in assay [5] and in assay [6] was > 100 µM each time. Also, the TGI in assay [7], in assay [8], in assay [9] and in [10] was > 100 µM throughout.
As to `CCOc1nc(-c2ccccc2)cc2c(O)c(-c3nnco3)[nH]c(=O)c12`, the GI50 is 4.28 µM in assay [1]; 1.24 µM in [2]; 3.2 µM in assay [3]; > 82.3 µM in [4]; 3.63 µM in [5]; 3.6 µM in assay [6]. The GI50 in [7] was 4.4 µM; in assay [8], 4.9 µM; in assay [9] it was 2.16 µM; in [10], 4.15 µM. Besides, the TGI is > 54.4 µM in assay [1]; 6.97 µM in assay [2]; > 100 µM in [3]; > 100 µM in assay [4]; > 89.8 µM in assay [5]; > 100 µM in assay [6]. The TGI in [7] is > 100 µM; in assay [8], > 100 µM; in assay [9], 8.18 µM; in [10], > 100 µM.
Consider `O=C(Nc1ccc(OS(=O)(=O)c2ccccc2)cc1)C12CC3CC(CC(C3)C1)C2`, for which the GI50 in assay [1] is 8.27 µM; in [2] it was 1.87 µM; in assay [3] it was 13.5 µM; in assay [4], > 100 µM; in assay [5], > 100 µM; in assay [6] it was 1.97 µM. For the same compound, the GI50 is 4.38 µM in assay [7], 5.05 µM in assay [8], 3.12 µM in assay [9] and 7.08 µM in [10]. The TGI in [1], in [2], in assay [3], in [4], in assay [5] and in [6] was > 100 µM throughout. In addition, the TGI in [7], in assay [8], in assay [9] and in [10] was > 100 µM in each case.
For `C=C(CCCCC)CN1CCCC1[C@@](C)(O)CC(=O)OCC` (stereo partly drawn), the TGI in assay [1], in assay [2], in assay [3], in [4], in assay [5] and in assay [6] was > 100 µM each time. In addition, the TGI in [7], in [8], in assay [9] and in assay [10] was > 100 µM throughout.
As for `C=C(C)C(CC=C(C)C)CC12CC(CC=C(C)C)C(C)(C)C(CC=C(C)C)(C(=O)C(Cc3ccc(O)c(O)c3)=C1O)C2=O` (stereo not drawn), the TGI in assay [1], in assay [2], in assay [3], in assay [4], in assay [5] and in [6] was > 100 µM in each case. Besides, the TGI in assay [7], in [8], in [9] and in assay [10] was > 100 µM each time.
As for `CC1=CC(/C=C(\C)CCCc2ccoc2)C2(OC(=O)C(C)=C2O)[C@H]2C1CC[C@@H]2C` (stereo partly drawn), the TGI in assay [1] was 56.2 µM; in assay [2], 41 µM; in assay [3], > 100 µM; in assay [5], > 100 µM; in assay [6], > 100 µM; in [7], 59.3 µM. The TGI in [8] is 41.3 µM; in [9], 46.4 µM; in [10] it was > 100 µM.
With `CNC(=S)NC1CCCCC1NC(=S)NC` (stereo not drawn), the TGI in assay [1], in [2], in [4], in assay [5], in assay [6] and in assay [7] was > 100 µM each time. Also, the TGI in [8], in [9] and in assay [10] was > 100 µM throughout.
